According to publication PMC12812009, “Optimization of 4‐Amino‐2‐Pyridone Inhibitors of Proprotein Convertase Subtilisin/Kexin Type 9: Integrating Structure–Activity and Structure–Metabolism Relationships” (Chemmedchem, 2025):
Read-outs that look alike come from different tables or passages of the source.

How the values were obtained:
secreted PCSK9 = assay: PCSK9 secretion in culture medium, ELISA on HepG2 supernatants; format: cell-based, human; settings: for decrease of secreted PCSK9 vs. basal: given as decrease
Experimental: Next, the levels of secreted PCSK9 were quantified by ELISA assay (Figure 5) only on supernatants collected from cells treated with noncytotoxic concentrations of each compound, as reported in Table 1. Simvastatin (Simva) at 20 and 40 μM and berberine (BBR) at 10 μM were included as controls. As described in the literature, simvastatin induces PCSK9 expression as a compensatory mechanism in response to its cholesterol‐lowering effects, being a pharmacological competitor for HMG‐CoA reductase, the rate‐limiting enzyme of the cholesterol biosynthetic pathway.^[ [29] ^] In contrast, BBR, a natural compound, reduces the expression of PCSK9 levels through transcriptional inhibition, thus increasing the LDLR availability on plasma membrane.^[ [30] ^] As additional and distinct mechanism to the latter, BBR is also able to stabilize the transcript of LDLR, thus increasing its half‐life.^[ [31] ^] As expected, cells stimulated with simvastatin released more PCSK9 into the culture medium compared to unstimulated cells, with a statistically significant concentration‐dependent effect (+73% at 20 μM, p < 0.01; +200% at 40 μM, p < 0.0001), while BBR at 10 μM decreased PCSK9 levels in the medium more than 50% (p < 0.0001 vs. basal) (Figure 5).^[ [32] ^] The amount of PCSK9 secreted into the culture media was measured with an appropriate ELISA kit (R&D System, DY3888 and DY008B2) on the supernatants collected during the MTT assay. Every experimental condition was run in duplicate and the average PCSK9 secretion and standard deviation was calculated. A 4PL regression analysis was used to interpolate unknowns with the standard curve using GraphPad Prism v10.2, according to manufacturers’ instructions. The data were normalized onto the corresponding cell viability, and IC50 was then calculated using GraphPad Prism v10.2.

[1] = MTT cell viability assay in HepG2 cell cultures; format: cell-based, human; settings: human, HepG2 cells, MTT
Experimental: The approach we set‐up to test the new PCSK9i was based on functional assay, which evaluated at the same time compounds cytotoxicity, and their effect on the secreted PCSK9 on the same cell line. First, cell viability was evaluated in HepG2 cell cultures using the MTT assay (CC50 values are reported in Table 1 and Figure 5 ) after 24 h of incubation in starving conditions (0.4% fetal bovine serum (FBS)). The low FBS concentration, and thus low extracellular lipoproteins, stimulates the sterol responsive element binding protein (SREBP) pathway, inducing the expression of LDLR, PCSK9, HMG‐CoA reductase,^[ [28] ^] thus increasing the uptake of exogenous cholesterol and enhancing the synthesis of endogenous cholesterol. This first step allowed us to calculate the CC50 and identify the noncytotoxic concentrations (viability higher than 90%; Table 1), then tested for PCSK9 inhibitory activity.
Cell viability was assessed using the MTT assay. Cells were seeded in 96‐well plates (2.5 × 10^4 cells/well) in MEM supplemented with 10% v/v FBS and incubated for 24 h. The cells were then treated with the synthesized compounds dissolved in DMSO at increasing concentrations (from 0.5 to 50 µM) in MEM supplemented with 0.4% v/v FBS for 24 h. Simvastatin [20 and 40 µM] and BBR [10 µM] (both from Merck, St. Louis, Missouri, USA) were used as internal controls as PCSK9 inducer and inhibitor, respectively.^[ [21] ^, [34] ^, [35] ^] The cells were then incubated for 2 h with a solution of MTT [1 mg mL^–1] in MEM supplemented with 0.4% v/v FBS, away from light sources. The supernatant was then collected and 200 µL of DMSO was added to each well to solubilize the newly formed formazan. Finally, an aliquot of 100 µL was taken to measure the absorbance at a wavelength of 570 nm using an absorbance microplate reader (Spark Tecan, Switzerland). Every experimental condition was run in duplicate and the average cell viability and standard deviation was calculated. Cell viability was expressed as the percentage of treated cells compared to untreated (basal) cells. CC50 values for each compound were calculated by interpolating the percentage of cell viability through nonlinear regression analysis of the log (inhibition) versus response using GraphPad Prism software version 8.0 (GraphPad Software Inc., La Jolla, CA).

[2] = In vitro metabolic stability with mouse liver microsomes; format: in vitro ADME; settings: 60 min; for metabolic stability, percentage of intact compound recovered relative to control: MLM 1 mg/ml + NADPH-generating system, 10 µM, HPLC; for metabolic stability (in words): MLM + NADPH-generating system
Experimental: All newly synthesized LSF derivatives of 5c were biologically evaluated to determine whether the introduced modifications influenced both metabolic stability and anti‐PCSK9 activity. Microsomal stability assays were conducted to assess the impact of LSF modifications on improving the stability of 5c. In these assays, LSF derivatives were incubated with mouse liver microsomes (MLM) and an NADPH‐generating system for 60 min, followed by HPLC analysis. Control samples included compounds and liver microsomes without the NADPH system, allowing for the assessment of nonspecific binding to microsomes. […] Acylated derivatives 12, 13, and 14 achieved stability levels exceeding 95%, as did the bicyclic derivative 7, which exemplifies a dual‐site functionalization.
MLM (pooled male) were obtained from Xenotech, LLC (Cambridge, Kansas City, USA). Glucose‐6‐phosphate (G6P), oxidized nicotinamide‐adenine‐dinucleotide phosphate (NADP^+), magnesium chloride (MgCl2), and glucose‐6‐phosphate‐dehydrogenase (G6PDH) were supplied by Sigma‐Aldrich (Milan, Italy). Metabolic stability assays were modified from Ferlenghi et al.^[ [33] ^] Briefly, samples were prepared in 100 mM phosphate buffered saline (PBS), pH 7.4, containing 1 mg ml^–1 MLM and a NADPH‐generating system (5 mM MgCl2, 10 mM glucose‐6‐phosphate, 2 mM NADP^+, 1.5 U ml^–1 of glucose‐6‐phosphate dehydrogenase). After incubation (37 °C, 5 min stirring), compounds stock solutions in DMSO were added to a final concentration of 10 µM. The final DMSO percentage in samples was kept at 0.5%. After 60 min, single aliquots of reaction mixture were withdrawn, added of two volumes of acetonitrile, centrifuged (10,000 g, 10 min) and the supernatant was analyzed by HPLC. The unspecific binding to MLM was evaluated by means of control samples in which the compounds were incubated in the absence of a NADPH generating system. The apparatus used for HPLC analysis was a Shimadzu instrument, with a reverse‐phase Nova‐Pak column (Waters) (C18 4 μm 3.9 × 150 mm, Waters). The mobile phase, pumped at a flow rate of 1.2 ml min^–1, consisted of water and acetonitrile in either a 50:50 (v/v) ratio (compounds 5c, 6a, 6b, 6c, 7, 8, 12, 13, 14, 17b) or a 40:60 (v/v) ratio (compounds 11 and 15) or a 30:70 (v/v) ratio (for compounds 17a, 18a, 18b). For compounds 9 and 10, a phosphate buffer (5.98 g L^–1 Na2HPO4, 0.19 g L^–1 KH2PO4, adjusted to pH 7.4 with 85% H3PO4 and supplemented with 1.4 mL L^–1 triethylamine; final pH: 8) and acetonitrile (50:50, v/v) were pumped at a flow rate of 2 mL min^–1. In all cases, column temperature was 35 °C, injection volume was 50 µl, and absorbance was monitored at 254 nm. Serial dilutions for the calibration curves were prepared in the interval 0.5–20 µM in either PBS:CH3CN or H2O:CH3CN mixture (50:50, v/v) for compounds 5c, 6a, 6b, 8, 9, 10, 11, 12, 13, 14, 15, 17a, 17b, 18a, 18b, and in acetonitrile for compounds 6c and 7.

[3] = Homo sapiens, HepG2, Table S2, ELISA, non-cytotoxic concentrations, read-out: IC50 ± SD on PCSK9 secreted by HepG2
[4] = Homo sapiens, HepG2, 24 h, read-out: secreted PCSK9 change vs. basal
[5] = 24 h incubation, HepG2, 0.4% FBS, 0.5-50.0 μM, read-out: CC50 (CI 95%)
[6] = HepG2, 24 h, non-cytotoxic concentrations
[7] = printed in Figures 5 and 8, HepG2, 24 h, read-out: CC50
[8] = Homo sapiens, HepG2, 24 h, ELISA on supernatants, normalized to viability, Figures 5 and 8 and text, read-out: IC50 (anti-PCSK9 activity, PCSK9 secretion)

SMILES	inhibition at 5 µM (secreted PCSK9; [4]) [%]	CC50 at 24 h [1, 5] [µM]	metabolic stability (in words) [2]	CC50 at 24 h [1, 7] [µM]	other results
Cc1cc(NCc2ccc(C(F)(F)F)cc2)c(Cl)c(=O)n1Cc1ccc(C(F)(F)F)cc1 [Compound 6a, 3‐Chloro‐6‐Methyl‐1‐(4‐(Trifluoromethyl)Benzyl)‐4‐((4‐(Trifluoromethyl)Benzyl)Amino)pyridin‐2(1H)‐One]	55	16	–	–	IC50 (secreted PCSK9; [3]): 5.4 ± 2.65 µM; inhibition at 0.5 µM (secreted PCSK9; [4]): 80%
Cc1cc(N(Cc2ccc(C(F)(F)F)cc2)C(=O)CCl)cc(=O)n1Cc1ccc(C(F)(F)F)cc1 [Compound 14, 2‐Chloro‐N‐(6‐Methyl‐2‐Oxo‐1‐(4‐(Trifluoromethyl)Benzyl)‐1,2‐Dihydropyridin‐4‐yl)‐N‐(4‐(Trifluoromethyl)Benzyl)Acetamide]	–	15	–	–	effect on PCSK9 secretion (in words) (secreted PCSK9; [6]): a bit less effective than 8 at the highest concentration used; IC50 (secreted PCSK9; [3]): 6.4 ± 0.37 µM; metabolic stability, percentage of intact compound recovered relative to control [2]: exceeding 95%
Cc1cc(NCc2ccc(C(F)(F)F)cc2)c(CN2CCCC2)c(=O)n1Cc1ccc(C(F)(F)F)cc1 [Compound 9, 6‐Methyl‐3‐(Pyrrolidin‐1‐ylmethyl)‐1‐(4‐(Trifluoromethyl)Benzyl)‐4‐((4‐(Trifluoromethyl)Benzyl)Amino)pyridin‐2(1H)‐One]	–	22.2	did not exhibit any enhancements relative to 5c	–	effect on PCSK9 secretion (in words) (secreted PCSK9; [6]): moderate but significant inhibition of PCSK9 secretion
CC(=O)N(Cc1ccc(C(F)(F)F)cc1)c1cc(C)n(Cc2ccc(C(F)(F)F)cc2)c(=O)c1Br [Compound 15, N‐(3‐Bromo‐6‐Methyl‐2‐Oxo‐1‐(4‐(Trifluoromethyl)Benzyl)‐1,2‐Dihydropyridin‐4‐yl)‐N‐(4‐(Trifluoromethyl)Benzyl)Acetamide]	–	–	did not result in improved stability over the single‐site modifications in 12 or 6b	> 50	effect on PCSK9 secretion (in words) (secreted PCSK9; [6]): did not inhibit PCSK9 in a dose‐dependent manner; inhibition at 25 µM (secreted PCSK9; Homo sapiens, 25 μM, HepG2, 24 h, read-out: secreted PCSK9 change vs. basal): 80%
Cc1cc(OCc2ccc(C(F)(F)F)cc2)cc(=O)n1Cc1ccc(C(F)(F)F)cc1 [Compound 17a, 6‐Methyl‐1‐(4‐(Trifluoromethyl)Benzyl)‐4‐((4‐(Trifluoromethyl)Benzyl)Oxy)pyridin‐2(1H)‐One]	58	22	did not show improved metabolic stability compared to 5c	–	–
CO/C(=N\c1cc(C)n(Cc2ccc(C(F)(F)F)cc2)c(=O)c1)c1ccc(C(F)(F)F)cc1 [Compound 8, Methyl (Z)‐N‐(6‐Methyl‐2‐Oxo‐1‐(4‐(Trifluoromethyl)Benzyl)‐1,2‐Dihydropyridin‐4‐yl)‐4‐(Trifluoromethyl)Benzimidate]	–	30.2	entirely metabolized	43.1	decrease of secreted PCSK9 vs. basal (secreted PCSK9; 10 μM, HepG2, 24 h): 50%; IC50 (secreted PCSK9; [3]): 7.2 ± 0.51 µM
COc1ccc2cc3[n+](cc2c1OC)CCc1cc2c(cc1-3)OCO2 [BBR, berberine, reference compound]	–	–	–	25	decrease of secreted PCSK9 vs. basal (secreted PCSK9; 10 μM, HepG2, 24 h): more than 50%; inhibition at 10 µM (secreted PCSK9; Homo sapiens, 10 μM, HepG2, 24 h, read-out: secreted PCSK9 change vs. basal): 52%; IC50 (secreted PCSK9; [8]): 10 µM
Cc1cc(OCc2cccc(F)c2)cc(=O)n1Cc1ccc(Cl)cc1 [Compound 17b, 1‐(4‐Chlorobenzyl)‐4‐((3‐Fluorobenzyl)Oxy)‐6‐Methylpyridin‐2(1H)‐One]	82	10	did not show any improvement in metabolic stability compared to 5c	–	IC50 (secreted PCSK9; [8]): < 2.5 µM
CCC(C)(C)C(=O)O[C@H]1C[C@@H](C)C=C2C=C[C@H](C)[C@H](CC[C@@H]3C[C@@H](O)CC(=O)O3)[C@H]21 [simvastatin, reference compound]	–	–	–	–	secreted PCSK9 change vs. unstimulated cells (secreted PCSK9; 20 μM, HepG2, 24 h): +73%; secreted PCSK9 change vs. unstimulated cells (secreted PCSK9; 40 μM, HepG2, 24 h): +200%
Cc1cc(N(Cc2ccc(C(F)(F)F)cc2)C(=O)c2ccccc2)cc(=O)n1Cc1ccc(C(F)(F)F)cc1 [Compound 13, N‐(6‐Methyl‐2‐Oxo‐1‐(4‐(Trifluoromethyl)Benzyl)‐1,2‐Dihydropyridin‐4‐yl)‐N‐(4‐(Trifluoromethyl)Benzyl)Benzamide]	51	–	–	> 50	inhibition at 0.5 µM (secreted PCSK9; [4]): 17%; metabolic stability, percentage of intact compound recovered relative to control [2]: exceeding 95%
Cc1cc2c(c(=O)n1Cc1ccc(C(F)(F)F)cc1)CN(C(C)C)CN2Cc1ccc(C(F)(F)F)cc1 [Compound 10, 3‐Isopropyl‐7‐Methyl‐1,6‐Bis(4‐(Trifluoromethyl)Benzyl)‐2,3,4,6‐Tetrahydropyrido[4,3‐d]pyrimidin‐5(1H)‐One]	–	21.9	less stable	–	–
